{"source": "paper PMC10388327", "about": "“Dual Piperidine-Based Histamine H3 and Sigma-1 Receptor Ligands in the Treatment of Nociceptive and Neuropathic Pain” (Journal of Medicinal Chemistry, 2023)", "key": {"[1]": {"test_system": "CCI-exposed mice", "experiment": "CCI of the sciatic nerve, tail flick test", "format": "in vivo, male albino Swiss CD-1 mice", "protocol": "(§1) Behavioral assessment of 12 was performed 14 days after the sciatic nerve injury. Mice were randomly assigned to four treatment groups: vehicle-treated (i.p.) and 12-treated (5, 10, and 15 mg/kg, i.p.). Baseline measurements (basal) for all tests were performed before compound injections, and the results are presented as percentages of the maximal possible effect (% MPE). We observed a significant effect of the tested compound in the von Frey test at all tested time points (30 min: F(3, 26) = 12.38, p < 0,0001; 90 min: F(3, 26) = 12.65, p < 0.0001; 180 min: F(3, 26) = 6.464, p = 0.0020). […] We also observed a significant effect of treatment on the contralateral paw 90 min after injection (F(3, 26) = 5.741, p = 0.0037).\nThe model of chronic constriction injury (CCI) to the sciatic nerve was established according to Bennett and Xie.[94] The surgical method was performed under isoflurate anesthesia (2% isoflurane in 100% oxygen with a flow of 1.5 L/min).[95] […]\nTail flick latency was measured on the dorsal part of the tail at two-thirds of its length by applying a focused beam of light (thermal stimulus). The time interval between onset of the thermal stimulus and withdrawal of the tail from the beam was recorded; the cutoff latency was 9 s to prevent tissue damage."}, "[2]": {"experiment": "serum metabolic stability"}, "[3]": {"test_system": "mice", "experiment": "loperamide-induced antinociception (paw pressure, struggle response latency)", "format": "in vivo, Female CD1 mice"}, "[4]": {"experiment": "spontaneous locomotor activity", "format": "in vivo, mice", "details": "mouse, in vivo, ip; estimated; read-out: ED50, decrease of spontaneous locomotor activity", "protocol": "(§2) The high sedative activity of analgesics is considered an undesirable property, which may lead to an incorrect or ambiguous interpretation of the in vivo results. Moreover, it may limit the potential clinical application of new drug candidates.\n(§3) This test was carried out according to the procedure described elsewhere.[84] The animals were injected (i.p.) with 12 at doses of 5, 15, and 30 mg/kg and placed in the activity cages individually (30 min before the experiment). The number of light-beam crossings was counted in each group during the next 30 min in 10 min intervals."}, "[5]": {"test_system": "mice", "experiment": "spontaneous locomotor activity", "format": "in vivo", "protocol": "as §2, §3"}, "[6]": {"target": "T1, sigma-1 receptor (σ1R) (Cavia porcellus, UniProt Q60492)", "T1 construct": "The thawed membrane preparation of the guinea pig brain cortex was incubated; from tissue; host or cells: male Dunkin-Hartley guinea pig brain cortex membranes", "T1 sequence (Q60492 whole entry)": "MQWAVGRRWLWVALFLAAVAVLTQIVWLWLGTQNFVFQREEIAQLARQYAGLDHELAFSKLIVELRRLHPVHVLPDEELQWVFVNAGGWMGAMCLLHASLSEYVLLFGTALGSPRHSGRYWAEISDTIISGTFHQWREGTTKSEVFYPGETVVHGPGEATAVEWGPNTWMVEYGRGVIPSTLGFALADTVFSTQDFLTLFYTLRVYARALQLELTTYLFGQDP", "experiment": "σ1R radioligand binding ([3H](+)-pentazocine)", "design": "species or system guinea pig", "details": "read-out: σ1R Ki [nM] x̄ [CI 95%]; mean [CI 95%]"}, "[7]": {"test_system": "sigma-1 receptor (σ1R)", "experiment": "σ1R radioligand binding ([3H](+)-pentazocine)", "design": "species or system guinea pig", "details": "ratio of σ2R Ki to σ1R Ki"}, "[8]": {"test_system": "CCI-exposed mice", "experiment": "CCI of the sciatic nerve, cold plate test", "format": "in vivo, male albino Swiss CD-1 mice", "protocol": "as §1\nThe model of chronic constriction injury (CCI) to the sciatic nerve was established according to Bennett and Xie.[94] The surgical method was performed under isoflurate anesthesia (2% isoflurane in 100% oxygen with a flow of 1.5 L/min).[95] Below the right hipbone, a small incision was performed, and three ligatures (4/0 silk) around the sciatic nerve were made (with 1 mm spacing) until a brief twitch in the respective hind limb was observed. All mice that underwent the CCI procedure developed hypersensitivity to mechanical and thermal stimuli. Behavioral tests were performed at day 14 after injury. Compound 12 was dissolved in 10% DMSO/10% (2-hydroxypropyl)-β-cyclodextrin/water and administered i.p. at doses 5, 10, and 15 mg/kg (injection volume 10 mL/kg of body weight). The control group received the vehicle (10% DMSO/10% (2-hydroxypropyl)-β-cyclodextrin/water).\nBehavioral experiments were performed between 8:00 a.m. and 2:00 p.m. Across the experiments, we compared vehicle-treated mice with 12-treated animals. […]\nSensitivity to noxious thermal stimuli was assessed with the cold plate test (Cold/Hot Plate Analgesia Meter, Columbus Instruments) as previously described.[95] […] The mice were placed on the cold plate, and the time until lifting of the injured paw was recorded."}, "[9]": {"target": "T2, human recombinant histamine H3R (Homo sapiens, UniProt Q9Y5N1)", "T2 construct": "expressed in transfected cells", "T2 sequence (Q9Y5N1 whole entry)": "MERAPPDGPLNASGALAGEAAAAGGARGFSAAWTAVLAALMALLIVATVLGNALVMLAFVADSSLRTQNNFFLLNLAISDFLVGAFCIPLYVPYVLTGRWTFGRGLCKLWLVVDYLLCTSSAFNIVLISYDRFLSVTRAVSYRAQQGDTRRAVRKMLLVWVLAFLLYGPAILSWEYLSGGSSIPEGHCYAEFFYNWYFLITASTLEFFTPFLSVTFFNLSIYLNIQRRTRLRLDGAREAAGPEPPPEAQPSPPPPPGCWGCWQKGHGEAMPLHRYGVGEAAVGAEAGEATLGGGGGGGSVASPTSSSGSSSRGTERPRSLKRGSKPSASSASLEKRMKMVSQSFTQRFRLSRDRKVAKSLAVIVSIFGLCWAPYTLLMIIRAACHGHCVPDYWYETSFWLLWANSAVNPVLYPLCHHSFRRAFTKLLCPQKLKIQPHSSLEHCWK", "experiment": "hH3R radioligand binding ([3H]Nα-methylhistamine depletion assay)", "details": "read-out: hH3R Ki [nM] x̄ [CI 95%]; mean [CI 95%]; HEK-293 cells"}, "[10]": {"test_system": "mice", "experiment": "oxaliplatin-induced neuropathy, von Frey test", "format": "in vivo", "details": "for pain threshold after single administration, early phase: 3 h after OXPT; for pain threshold after single administration, late phase: 7 days after OXPT", "protocol": "The neuropathy manifests as a decrease in the pain threshold and can be observed in hours or in days after oxaliplatin administration, which is called the early or late phase of neuropathic pain, respectively. We tested the influence of compound 12 on tactile allodynia using the von Frey method 3 h and 7 days after the induction of neuropathy.[12]\nNeuropathy was induced by the administration of a single dose (10 mg/kg) of oxaliplatin (OXPT) dissolved in a 5% glucose solution (Polfa Kutno, Poland). To assess the sensitivity to mechanical stimuli, the von Frey test was carried out using the electronic von Frey unit (Bioseb, France). The apparatus was supplied with a single flexible filament, which was used to apply increasing force (from 0 to 10 g) against the plantar surface of the hind paw of the mouse. […] The measurement was done before the OXPT administration and 3 h and 7 days afterward. The compounds were administrated to the animals with tactile allodynia observed as a statistically significant decrease in pain threshold. On the day of the experiment, each mouse was placed in an observation chamber with a wire mesh bottom and was allowed to habituate for 1 h. After the habituation period, the mouse pain threshold was tested three times alternately with at least 30 s gap between each measurement. The mean of these three consecutive measurements was taken as the baseline value. The mice with tactile allodynia were i.p. pretreated with the tested compound, and 30 min later, the animals were tested again according to the same procedure.[92]"}, "[11]": {"experiment": "parallel artificial membrane permeability assay (PAMPA)", "format": "in vitro ADME", "details": "100 μM in PBS pH 7.4, RT, read-out: Pe (permeability coefficient)"}}, "note": "Structures can show the parent of a compound that is named as a salt."}
{"smiles": "N#Cc1ccc(-c2ccc(OCCCN3CCC(c4ccncc4)CC3)cc2)cc1", "note": "[Compound 12, 4′-(3-(4-(Pyridin-4-yl)piperidin-1-yl)propoxy)-[1,1′-biphenyl]-4-carbonitrile Oxalate]", "values": [{"measurement": "analgesic effect, tail flick test", "setting": "[1]; 100 and 190 min after i.p. injection", "result": "only the 10 mg/kg dose had significant analgesic effects"}, {"measurement": "analgesic effect, tail flick test", "setting": "[1]; 40 min after i.p. injection", "result": "significant analgesic action of 12 at 40 min (for doses 5 (p = 0.021) and 10 mg/kg (p < 0.0001))"}, {"measurement": "serum stability assessment", "setting": "[2]", "result": "moderately stable ligand"}, {"measurement": "half-life at 24 h", "setting": "[2]; serum (made from plasma by clotting with calcium chloride)", "result": "7.7 ± 1.4", "unit": "h"}, {"measurement": "in vivo σ1 receptor functional profile", "setting": "[3]; concluded from PRE-084 reversal", "result": "σ1 receptor antagonists"}, {"measurement": "effect on loperamide-induced antinociception", "setting": "[3]; i.pl. with loperamide 4 mg/kg s.c., injected paw", "result": "dose-dependently (12.5–25 μg) increased the antinociceptive effect of loperamide at the injected paw"}, {"measurement": "effect alone on struggle response latency", "setting": "[3]; i.pl., S1RA 100 μg, 12 25 μg, 450 g pressure", "result": "did not have any effect per se"}, {"measurement": "ED50 at 30 min", "setting": "[4]", "result": 22, "unit": "mg/kg"}, {"measurement": "influence on spontaneous locomotor activity (sedative effect)", "setting": "[5]; 15 mg/kg i.p.", "result": "decreased spontaneous locomotor activity, but the effect was not statistically significant"}, {"measurement": "influence on spontaneous locomotor activity (sedative effect)", "setting": "[5]; 30 mg/kg i.p.", "result": "significantly decreased locomotor activity"}, {"measurement": "Ki", "setting": "[6]", "result": 4.5, "unit": "nM"}, {"measurement": "σ2/σ1 ratio", "setting": "[7]", "result": 2.2}, {"measurement": "analgesic effect, cold plate test", "setting": "[8]; 35 min after i.p. injection, 5, 10, 15 mg/kg", "result": "analgesic effects of 12 single injection were observed at 35 min for all tested doses"}, {"measurement": "analgesic effect, cold plate test", "setting": "[8]; 95 min after i.p. injection, 5, 10, 15 mg/kg", "result": "antihyperalgesic effect was also observed 95 min after injection"}, {"measurement": "analgesic effect, cold plate test", "setting": "[8]; 185 min after i.p. injection", "result": "significant only for doses 5 (p = 0.0482) and 10 mg/kg (p < 0.0001)"}, {"measurement": "Ki", "setting": "[9]", "result": 7.7, "unit": "nM"}, {"measurement": "pain threshold after single administration, early phase", "setting": "[10]; 5 mg/kg i.p.", "result": "88.6 % of the baseline"}, {"measurement": "pain threshold after single administration, early phase", "setting": "[10]; 10 mg/kg i.p.", "result": "115.0 % of the baseline"}, {"measurement": "pain threshold after single administration, late phase", "setting": "[10]; 10 mg/kg i.p.", "result": "99.8 % of the baseline"}, {"measurement": "pain threshold after single administration, early phase", "setting": "[10]; 15 mg/kg i.p.", "result": "124.3 % of the baseline"}, {"measurement": "pain threshold after single administration, late phase", "setting": "[10]; 15 mg/kg i.p.", "result": "123.7 % of the baseline"}, {"measurement": "Papp at 5 h, 100 µM", "setting": "[11]", "result": 12, "unit": "×10⁻⁶ cm/s"}]}
